Format in all cases: physicochemical
A short description of data set [1]: Evaluation of molar absorption coefficient (UV-vis). Particulars: for Molar absorption coefficient: deionized water, UV-vis spectrometer; for absorption coefficient relative to HNB: times higher than that of HNB. The method, then:
HNB and 9 types of candidate substances were dissolved in deionized water to prepare 100 μg/ml of a stock and then diluted with deionized water to prepare samples of 50, 25 and 12.5 μg/ml. Next, an absorption spectrum was obtained using an analyzer UV-vis spectrometer (Agilent 8453), and then absorption coefficient values at a concentration of […] were measured and shown in Table 1 below.

Data set [2] is described as follows: Evaluation of magnesium ion detection characteristics and pH stability (color development, 96 well plate). Particulars: sodium phosphate buffer pH 4, 7, 9, 11; specimen 120 μM. The method, then: 200 mM of a magnesium chloride solution was prepared by dissolving 0.9521 g of magnesium chloride in 50 ml of deionized water.
59.99 mg of sodium phosphate monobasic and 70.98 mg of sodium phosphate dibasic were dissolved in 50 ml of distilled water to prepare 10 mM of a sodium phosphate buffer solution, and then 28.85 ml of a sodium phosphate monobasic solution and 21.15 ml of a sodium phosphate dibasic solution were mixed to prepare a sodium phosphate buffer solution at pH 7. In a similar manner, the two solutions were mixed to prepare sodium phosphate buffer solutions having acidity of pH 4, pH 7, pH 9, and pH 11, respectively.
For determination of color development, the HNB and the candidate substance were prepared at concentrations of 240 μM and used for the test.
Hydroxynaphthalene blue (HNB) and 9 types of water-soluble candidate substances selected by the solubility test were diluted with distilled water to prepare specimens at concentrations of 240 μM, respectively.
It was confirmed whether the candidate substances according to the present invention reacted with magnesium ions to be color-developed (discolored). In addition, pH stability was confirmed according to whether the candidate substances were specifically color-developed by reacting only with magnesium ions regardless of a pH change.
The color development of the control (HNB) and […] of candidate substances was confirmed under conditions of blank, a MgCl2 solution, pH 4, pH 7, pH 9, and pH 11 using a 96 well plate (12×6 holes). Specifically, 100 μl of deionized water (blank) was added in a first row of the plate, 100 μl of the MgCl2 solution was added in a second row thereof, and 100 μl of each of solutions at pH 4, pH 7, pH 9, and pH 11 was added in third to sixth rows thereof using 10 mM of the sodium phosphate buffer solution prepared in step a) above. In columns of the plate, 100 μl of specimens prepared at a concentration of 240 μM were added to 6 rows, respectively, and a total of 36 specimens were screened. […]

Data set [3] is described as follows: Evaluation of magnesium ion sensitivity at concentration of less than 10 mM. How it is done:
Magnesium chloride was dissolved in deionized water and diluted to 8, 10, 12, 14 and 16 mM, respectively, to prepare specimens. Next, as the dye compounds, the HNB and the compound of Chemical Formula 2 were prepared at a concentration of 240 μM, but the compounds of Chemical Formulas 3 and 4 were prepared to be diluted at a concentration of 120 μM by 50% because the molar absorption coefficient of the compounds was two times higher than that of the control (HNB).
In each row of a 96-well plate, […] of the dye compound was filled, and in each column, […] of a diluted magnesium chloride solution was filled, and then the color changes were observed and absorbance was measured. The final concentrations of magnesium chloride in the 96-well plate were 0, 4, 5, 6, 7, and 8 mM, and the final concentrations of HNB and Chemical Formula 2 were 120 μM, respectively, and the final concentrations of Chemical Formulas 3 and 4 were 60 μM, respectively.

Data set [4] is described as follows: Solubility test in water. Particulars: 10 mg dissolved in 1 ml of deionized water. How it is done: The solubility in water was measured to confirm the solubility of the synthesized candidate compounds. Specifically, 10 mg of hydroxynaphthalene blue (HNB), which is a compound known to be developed by magnesium ions as a control, and 10 mg of each of the candidate compounds were dissolved in 1 ml of deionized water, and then the solubility was confirmed.
Various color developing dyes represented by Chemical Formula 1 above were dissolved in distilled water (D.W) and the solubility was tested to select a compound having high solubility. The selected compound was diluted at each concentration (100 uM, 50 uM, 25 uM, 12.5 uM, 6.25 uM, and 3.13 uM) and the reaction sensitivity with magnesium (magnesium concentration of 100 mM, 10 mM) by concentration was tested.

Entries after “also recorded” stand apart in the source; their conditions may differ.

As to `O=[N+]([O-])c1ccc(O)c(N=Nc2cc(S(=O)(=O)O)c3ccccc3c2O)c1` [Chemical Formula 2], the Molar absorption coefficient in data set [1] is 12,000. Moreover, in data set [2], the “pH stability (color development with pH change in the absence of magnesium ions)” value is “developed to a color clearly different from that in the presence of magnesium ions under neutral to basic conditions”. Regarding `Nc1ccc2c(O)c(N=Nc3ccc([N+](=O)[O-])cc3O)c(S(=O)(=O)O)cc2c1` [Chemical Formula 3], in data set [1], the Molar absorption coefficient is given as 44,000 and the “absorption coefficient relative to HNB” value was 3.38 times. Besides, the “pH stability (color development with pH change in the absence of magnesium ions)” value in data set [2] is “excellent; also recorded: without being influenced by the pH change”. The “absorption spectrum position after shift by magnesium ions” value in data set [3] (with magnesium ions) is 640 nm. Moreover, the “absorption spectrum position before shift by magnesium ions” value in data set [3] (without magnesium ions) is on record as 500 nm.

For `O=[N+]([O-])c1cc(N=Nc2c(S(=O)(=O)O)cc3cc(Nc4ccccc4)ccc3c2O)c(O)c([N+](=O)[O-])c1` [Chemical Formula 4], in data set [1], the Molar absorption coefficient is 31,000 and the “absorption coefficient relative to HNB” value came to 2.38 times. Moreover, in data set [2], the “pH stability (color development with pH change in the absence of magnesium ions)” value was “excellent; also recorded: without being influenced by the pH change”. Take `CC1=NN(c2ccccc2)C(O)C1N=Nc1cc([N+](=O)[O-])cc(S(=O)(=O)O)c1O` (centres unmarked) [Chemical Formula 5]: the Molar absorption coefficient in data set [1] was 33,579. For `O=[N+]([O-])c1cc(N=Nc2c(O)cccc2O)c(O)c(S(=O)(=O)O)c1` [Chemical Formula 6], the Molar absorption coefficient in data set [1] is recorded as 18,000.

On to `O=[N+]([O-])c1cc(N=Nc2c(S(=O)(=O)O)cc3cc(Nc4ccccc4)ccc3c2O)c(O)c(S(=O)(=O)O)c1` [Chemical Formula 7], for which the Molar absorption coefficient in data set [1] is recorded as 25,000. The same measure, in the same setting: for `O=[N+]([O-])c1cc(N=Nc2c(O)ccc3ccccc23)c(O)c([N+](=O)[O-])c1` [Chemical Formula 8] the value was 5,117. In the case of `O=[N+]([O-])c1cc(S(=O)(=O)O)cc(N=Nc2cc(S(=O)(=O)[O-])c3ccccc3c2O)c1O.[Na+]` [Chemical Formula 9], the Molar absorption coefficient in data set [1] is reported as 23,000. With “hydroxynaphthalene blue [HNB, reference compound]”, the Molar absorption coefficient in data set [1] was 13,000. In addition, the solubility in water entry in data set [4] is “dissolved in water”.

(Values after US11519017B2, “Kit for diagnosing infection with Methicillin-resistant Staphylococcus aureus (MRSA) by detecting magnesium ions” (Bioacts Corporation, priority 2017, dated 2022).)
